US20230374007A1, “COMPOUNDS AND THEIR USE IN TREATING CANCER” (AstraZeneca AB, priority 2020, published 2023)

Target: T1, cereblon (CRBN)—DNA damage protein 1 (DDB1) complex (Homo sapiens, UniProt Q96SW2)
T1 construct: encoding amino acid residues 1 to 442 (Uniprot Q96SW2); hexahistidine (N); thrombin cleavage site (N); made in house; host or cells: Sf9 insect cells (baculovirus co-infection)
Assay: Cereblon HTRF binding assay
Source text: The synthesized sequence was designed to encode an N-terminal hexahistidine tag, a thrombin cleavage site, an AviTag™ and a tobacco etch virus protease (TEV) cleavage site followed by the CBRN sequence. The resulting protein sequence is listed below.
The synthesized sequence was designed to encode an N-terminal hexahistidine tag, a tobacco etch virus protease (TEV) cleavage site followed by the DDB1 sequence. […] The linker amino acid residues are underlined and shown in italics.
Baculovirus production of CBRN and DDB1: Recombinant bacmid and P2 virus of CBRN and DDB1 was generated according to the Bac-to-Bac Baculovirus Expression System manual (ThermoFisher Scientific).
Protein Purification: Protein purification was initiated by thawing cells (resuspended in Lysis buffer) at r.t. Once thawed, NaCl was added to a final concentration of 200 mM, followed by 0.01 μL/mL Benzonase™ and the lysate was incubated with slow stirring for 20 minutes. After the freeze-thaw lysis, the whole cell lysate was centrifuged at 48 000 g for 45 minutes and all following purification steps were done on ice or in cold-room. Supernatant (cell lysate) was mixed with 1 mL/50 mL lysate Ni Sepharose™ 6 Fast Flow (Cytiva) pre-equilibrated with Wash buffer (50 mM Tris-Cl pH 8, 20 mM Imidazole, 500 mM NaCl, 10% Glycerol, 1 mM TCEP) and incubated with slow stirring for 1 h. The mix was loaded in a 70 mL open gravity flow column, washed with 10 bed volumes of Wash buffer, and stepwise eluted with 300 mM imidazole in Wash buffer. […] After biotinylation, the CBRN/DDB1 complex was purified by Size Exclusion Chromatography on a HiLoad™ 26/60 Superdex™ 200 column equilibrated in SEC buffer (50 mM HEPES pH 7.5, 200 mM NaCl, 5% glycerol, 1 mM TCEP) before flash-freezing in liquid nitrogen and storage at −80° C.
The assay mixture in a total volume of 4 μL consists of 50 mM Tris-HCl at pH 7.5, 100 mM NaCl, 0.01% Pluronic F127, 1 mM TCEP, 500 μM EDTA, 0.2 nM CRBN-DDB1, 0.2 nM terbium cryptate labeled streptavidin, and 2 nM Cyanine 5-labeled lenalidomide as the probe. […] Reagents were dispensed into the 384-well assay microplate using a Certus Flex liquid dispenser. After incubation for 2 h at r.t., the assay plates were read on a PHERAstar FSX plate reader (BMG Labtech) in the HTRF mode. The raw data from PHERAstar was directly imported into Genedata Screener for analysis. […] The ratio was normalized to positive and negative controls on the same plates to calculate percent inhibition: I %=(I−NC)/(PC−NC), where I are readings from the compound treated well, NC and PC are average readings from negative control wells and positive control wells, respectively. IC50 values were obtained by fitting the I % vs. compound concentration [I] to I %=S0+(SInf−S0)/(1+((IC50/[I])^n)), where S0 is the fitted activity level at zero concentration of test compound, SInf is the fitted activity level at […] concentration of test compound, and n is the hill coefficient of the curve.
The IC50 values reported below are the calculated mean result of one or more experiments.

T1 sequence (Q96SW2 with tags, fused parts or gaps): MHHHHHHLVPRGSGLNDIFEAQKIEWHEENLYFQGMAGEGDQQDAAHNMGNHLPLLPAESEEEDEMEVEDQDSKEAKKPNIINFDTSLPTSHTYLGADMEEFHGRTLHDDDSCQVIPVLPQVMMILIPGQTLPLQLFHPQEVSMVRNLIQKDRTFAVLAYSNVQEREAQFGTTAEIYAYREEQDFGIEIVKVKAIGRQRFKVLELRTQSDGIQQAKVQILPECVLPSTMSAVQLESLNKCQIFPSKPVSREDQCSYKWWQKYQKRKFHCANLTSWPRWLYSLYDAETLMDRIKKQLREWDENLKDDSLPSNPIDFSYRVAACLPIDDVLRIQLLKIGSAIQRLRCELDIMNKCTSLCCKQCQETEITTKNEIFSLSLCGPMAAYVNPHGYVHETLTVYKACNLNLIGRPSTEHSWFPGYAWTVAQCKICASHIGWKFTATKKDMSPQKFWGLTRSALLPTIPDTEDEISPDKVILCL

Row | SMILES | IC50 [µM]
1 | CC(=O)N1CCN(c2noc3cc(N4CCC(=O)NC4=O)ccc23)CC1 [Example 95, 1-(3-(4-Acetylpiperazin-1-yl)benzo[d]isoxazol-6-yl)dihydropyrimidine-2,4 (1H,3H)-dione] | 6.58
2 | O=C1CCN(c2ccc3c(c2)CCNC3)C(=O)N1 [Example 30, 1-(1,2,3,4-Tetrahydroisoquinolin-6-yl)dihydropyrimidine-2,4 (1H,3H)-dione] | 8.68
3 | O=C1CCN(c2ccn3cc(C4CCNCC4)nc3c2)C(=O)N1 [Example 92, 1-(2-(Piperidin-4-yl)imidazo[1,2-a]pyridin-7-yl)dihydropyrimidine-2,4 (1H,3H)-dione] | 5.24
4 | Cn1c(C2CCNCC2)cc2ccc(N3CCC(=O)NC3=O)cc21 [Example 84, 1-(1-Methyl-2-(piperidin-4-yl)-1H-indol-6-yl)dihydropyrimidine-2,4 (1H,3H)-dione] | 0.357
5 | O=C1CCN(c2cccc3nc(N4CCNCC4)sc23)C(=O)N1 [Example 101, 1-(2-(Piperazin-1-yl)benzo[d]thiazol-7-yl)dihydropyrimidine-2,4 (1H,3H)-dione] | 0.161
6 | COc1cc(N2CCC(=O)NC2=O)cc2[nH]ccc12 [Example 52, 1-(4-Methoxy-1H-indol-6-yl)dihydropyrimidine-2,4 (1H,3H)-dione] | 0.445
7 | CN1CCN(c2nc3ccc(N4CCC(=O)NC4=O)cc3o2)CC1 [Example 99, 1-(2-(4-Methylpiperazin-1-yl)benzo[d]oxazol-6-yl)dihydropyrimidine-2,4 (1H,3H)-dione] | 4.56
8 | O=C1CCN(c2ccc3c(c2)C(=O)NC3)C(=O)N1 [Example 44, 1-(3-Oxoisoindolin-5-yl)dihydropyrimidine-2,4 (1H,3H)-dione] | 8.47
9 | CN1CCCc2cc(N3CCC(=O)NC3=O)ccc21 [Example 27, 1-(1-Methyl-1,2,3,4-tetrahydroquinolin-6-yl)dihydropyrimidine-2,4 (1H,3H)-dione] | 1.04
10 | CN1CCc2cc(N3CCC(=O)NC3=O)ccc2C1 [Example 31, 1-(2-Methyl-1,2,3,4-tetrahydroisoquinolin-6-yl)dihydropyrimidine-2,4 (1H,3H)-dione] | 4.1
11 | CN1CCc2ccc(N3CCC(=O)NC3=O)cc21 [Example 23, 1-(1-Methylindolin-6-yl)dihydropyrimidine-2,4 (1H,3H)-dione] | 1.06
12 | Cc1c(N2CCC(=O)NC2=O)cnc2cc[nH]c12 [Example 49, 1-(7-Methyl-1H-pyrrolo[3,2-b]pyridin-6-yl)dihydropyrimidine-2,4 (1H,3H)-dione] | 0.124
13 | CC(=O)N1CCC(c2cc3ccc(N4CCC(=O)NC4=O)cc3[nH]2)CC1 [Example 83, 1-(2-(1-Acetylpiperidin-4-yl)-1H-indol-6-yl)dihydropyrimidine-2,4 (1H,3H)-dione] | 0.113
14 | CN1CCN(c2cn(C)c3ccc(N4CCC(=O)NC4=O)cc23)CC1 [Example 80, 1-(1-Methyl-3-(4-methylpiperazin-1-yl)-1H-indol-5-yl)dihydropyrimidine-2,4 (1H,3H)-dione] | 3.15
15 | CN1CCC(n2ccc3ccc(N4CCC(=O)NC4=O)cc32)CC1 [Example 121, 1-(1-(1-Methylpiperidin-4-yl)-1H-indol-6-yl)dihydropyrimidine-2,4 (1H,3H)-dione] | 3.84
16 | O=C1CCN(c2ccc3c(cnn3C3CCNCC3)c2)C(=O)N1 [Example 106, 1-(1-(Piperidin-4-yl)-1H-indazol-5-yl)dihydropyrimidine-2,4 (1H,3H)-dione] | 4.04
17 | CN1CCn2c(cc3cc(N4CCC(=O)NC4=O)ccc32)C1 [Example 105, 1-(2-Methyl-1,2,3,4-tetrahydropyrazino[1,2-a]indol-8-yl)dihydropyrimidine-2,4 (1H,3H)-dione] | 0.46
18 | CN1CCC(c2cc3ccc(N4CCC(=O)NC4=O)cc3[nH]2)CC1 [Example 82, 1-(2-(1-Methylpiperidin-4-yl)-1H-indol-6-yl)dihydropyrimidine-2,4 (1H,3H)-dione] | 0.168
19 | CN1CCC(c2cc3ccc(N4CCC(=O)NC4=O)cc3n2C)CC1 [Example 85, 1-(1-Methyl-2-(1-methylpiperidin-4-yl)-1H-indol-6-yl)dihydropyrimidine-2,4 (1H,3H)-dione] | 0.195

Row | SMILES | IC50 [µM]
20 | O=C1CCN(c2cccc3c2CNC3=O)C(=O)N1 [Example 43, 1-(1-Oxoisoindolin-4-yl)dihydropyrimidine-2,4 (1H,3H)-dione] | 3.63
21 | O=C1CCN(c2ccc3nn(C4CCNCC4)cc3c2)C(=O)N1 [Example 107, 1-(2-(Piperidin-4-yl)-2H-indazol-5-yl)dihydropyrimidine-2,4 (1H,3H)-dione] | 3.78
22 | O=C1CCN(c2cc(N3CCNCC3)cc3[nH]ccc23)C(=O)N1 [Example 91, 1-(6-(Piperazin-1-yl)-1H-indol-4-yl)dihydropyrimidine-2,4 (1H,3H)-dione] | 0.762
23 | O=C1CCN(c2cccc3[nH]ncc23)C(=O)N1 [Example 34, 1-(1H-Indazol-4-yl)dihydropyrimidine-2,4 (1H,3H)-dione] | 0.627
24 | CNC(=O)Cc1c[nH]c2cc(N3CCC(=O)NC3=O)ccc12 [Example 66, 2-(6-(2,4-Dioxotetrahydropyrimidin-1 (2H)-yl)-1H-indol-3-yl)-N-methylacetamide] | 0.264
25 | CN1Cc2ccc(N3CCC(=O)NC3=O)cc2C1=O [Example 10, 1-(2-Methyl-3-oxoisoindolin-5-yl)dihydropyrimidine-2,4 (1H,3H)-dione] | 7.88
26 | O=C1CCN(c2ccc3c(c2)CNCC3)C(=O)N1 [Example 28, 1-(1,2,3,4-Tetrahydroisoquinolin-7-yl)dihydropyrimidine-2,4 (1H,3H)-dione] | 17
27 | CN1CCN(c2c[nH]c3ccc(N4CCC(=O)NC4=O)cc23)CC1 [Example 78, 1-(3-(4-Methylpiperazin-1-yl)-1H-indol-5-yl)dihydropyrimidine-2,4 (1H,3H)-dione] | 1.87
28 | CNC(=O)CCn1ccc2ccc(N3CCC(=O)NC3=O)cc21 [Example 69, 3-(6-(2,4-Dioxotetrahydropyrimidin-1 (2H)-yl)-1H-indol-1-yl)-N-methylpropanamide] | 3.54
29 | O=C1CCN(c2ccc3c(c2)CCCN3)C(=O)N1 [Example 26, 1-(1,2,3,4-Tetrahydroquinolin-6-yl)dihydropyrimidine-2,4 (1H,3H)-dione] | 1.49
30 | Cn1c(C2CCNCC2)cc2c(N3CCC(=O)NC3=O)cccc21 [Example 88, 1-(1-Methyl-2-(piperidin-4-yl)-1H-indol-4-yl)dihydropyrimidine-2,4 (1H,3H)-dione] | 0.679
31 | N#Cc1cc(N2CCC(=O)NC2=O)cc2[nH]ccc12 [Example 134, 6-(2,4-Dioxotetrahydropyrimidin-1 (2H)-yl)-1H-indole-4-carbonitrile] | 1.66
32 | O=C1CCN(c2ccc3oc(=O)[nH]c3c2)C(=O)N1 [Example 47, 1-(2-Oxo-2,3-dihydrobenzo[d]oxazol-5-yl)dihydropyrimidine-2,4 (1H,3H)-dione] | 3.06
33 | CN1CCC(c2nc3ccc(N4CCC(=O)NC4=O)cc3o2)CC1 [Example 97, 1-(2-(1-Methylpiperidin-4-yl)benzo[d]oxazol-6-yl)dihydropyrimidine-2,4 (1H,3H)-dione] | 2.42
34 | O=C1CCN(c2ccc3c(C4CCNCC4)c[nH]c3c2)C(=O)N1 [Example 116, 1-(3-(Piperidin-4-yl)-1H-indol-6-yl)dihydropyrimidine-2,4 (1H,3H)-dione] | 0.368
35 | Cn1cc2cc(N3CCC(=O)NC3=O)ccc2n1 [Example 8, 1-(2-Methyl-2H-indazol-5-yl)dihydropyrimidine-2,4 (1H,3H)-dione] | 4.57
36 | O=c1ccn(-c2ccc3cc[nH]c3c2)c(=O)[nH]1 [Example 13, 1-(1H-Indol-6-yl)pyrimidine-2,4 (1H,3H)-dione] | 0.765
37 | Cn1cc(N2CCNCC2)c2cc(N3CCC(=O)NC3=O)ccc21 [Example 76, 1-(1-Methyl-3-(piperazin-1-yl)-1H-indol-5-yl)dihydropyrimidine-2,4 (1H,3H)-dione] | 1.92
